SMILES strings stand for the structures.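 In this assay, cells in 96-well plates receive the compound at five concentrations for 48 hours. Endpoints are linearly interpolated between the surrounding concentrations. GI50: concentration for 50% inhibition of growth.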 Calls of active or inactive are those of the source. No stated cut-off is given here; in the data, active = GI50 up to about 1.1 µM and inactive = higher. A value given as a limit tells only on which side of the number the result lay.

This note sets out measurements from ChEMBL document CHEMBL1201862, “PubChem BioAssay data set” (2004).

Among the test systems are 786-0; ACHN; EKVX; HCC 2998; HOP-62; K562; LOX IMVI; MDA-MB-435; Malme-3M; NCI-H23; NCI/ADR-RES; OVCAR-4; OVCAR-8; SF-539; SK-MEL-28; SK-OV-3; SR; T47D; U-251; UACC-62.
What all share (assay): NCI-60 cell line screen, 48 h

Regarding `CC1=[N+]([O-])C(C)(C)N(O)C1(C)C`, the GI50 with 786-0, with ACHN, in the assay on EKVX, in the assay on HCC 2998, with HOP-62 and in the assay on K562 was > 100 µM (inactive) in each case. The GI50 with LOX IMVI, in the assay with MDA-MB-435, in the assay with Malme-3M, in the assay on NCI-H23, in the assay on NCI/ADR-RES and in the assay with OVCAR-4 was > 100 µM (inactive) each time. Moreover, the GI50 with OVCAR-8, in the assay with SF-539, in the assay on SK-MEL-28, in the assay on SK-OV-3, with SR and with T47D was > 100 µM (inactive) in each case. The GI50 in the assay with U-251 and in the assay with UACC-62 was > 100 µM (inactive) in each case.

Regarding `COC(=O)c1c(C)[n+]([O-])c2cc(Cl)c(Cl)cc2[n+]1[O-]`, the GI50 in the assay on 786-0 was 27.2 µM (inactive); in the assay with ACHN, 15.8 µM (inactive); with EKVX, 19.5 µM (inactive); with HCC 2998 it was 16.1 µM (inactive); in the assay with HOP-62, 26 µM (inactive); with K562, 32.2 µM (inactive). For the same compound, the GI50 in the assay on LOX IMVI is 8.65 µM (inactive); in the assay on MDA-MB-435, 18.6 µM (inactive); in the assay with Malme-3M, 8.45 µM (inactive); in the assay on NCI-H23 it was 30.1 µM (inactive); in the assay on NCI/ADR-RES, 13.9 µM (inactive); in the assay on OVCAR-4, 19 µM (inactive). Also, the GI50 is 16.6 µM (inactive) with OVCAR-8; 18.9 µM (inactive) with SF-539; 27.4 µM (inactive) in the assay with SK-MEL-28; 12.9 µM (inactive) in the assay with SK-OV-3; 6.17 µM (inactive) with SR; 15.8 µM (inactive) in the assay with T47D. Further, the GI50 in the assay with U-251 is 16.5 µM (inactive); in the assay on UACC-62 it was 15 µM (inactive).

`COc1c2ccccc2c(OC)c2nc(C)ccc12`: the GI50 in the assay with 786-0 was 51.9 µM (inactive); with ACHN, > 100 µM (inactive); in the assay on EKVX, > 100 µM (inactive); with HCC 2998, > 100 µM (inactive); with HOP-62 it was > 100 µM (inactive); with K562 it was 30.6 µM (inactive). Moreover, the GI50 in the assay on LOX IMVI is 23.7 µM (inactive); in the assay with MDA-MB-435, > 100 µM (inactive); in the assay with Malme-3M it was > 93.5 µM (inactive); in the assay on NCI-H23, > 100 µM (inactive); with NCI/ADR-RES, > 100 µM (inactive); with OVCAR-4, > 100 µM (inactive). Also, the GI50 in the assay on OVCAR-8 is > 100 µM (inactive); with SF-539, > 100 µM (inactive); with SK-MEL-28, > 100 µM (inactive); in the assay on SK-OV-3, > 100 µM (inactive); in the assay on SR, 30.8 µM (inactive); in the assay on T47D, > 100 µM (inactive). The figures for the GI50 with U-251 and with UACC-62 were 42.5 µM (inactive) and > 81.8 µM (inactive), respectively.

For `O=C(NO)c1ccc(C(=O)NO)cc1`, the GI50 was > 100 µM (inactive) in the assay on 786-0; > 100 µM (inactive) in the assay on ACHN; > 100 µM (inactive) with EKVX; 9.86 µM (inactive) with HCC 2998; 62.2 µM (inactive) in the assay with HOP-62; 38.4 µM (inactive) in the assay on K562. The GI50 is > 100 µM (inactive) in the assay on LOX IMVI; 48 µM (inactive) in the assay with MDA-MB-435; 9.27 µM (inactive) with Malme-3M; > 100 µM (inactive) in the assay on NCI-H23; 3.21 µM (inactive) in the assay on NCI/ADR-RES; > 100 µM (inactive) with OVCAR-4. In addition, the GI50 was 30.8 µM (inactive) in the assay on OVCAR-8; > 100 µM (inactive) in the assay on SF-539; > 100 µM (inactive) with SK-MEL-28; 12 µM (inactive) in the assay on SK-OV-3; 27.4 µM (inactive) with SR; 30.3 µM (inactive) in the assay with T47D. Besides, the results for the GI50 with U-251 and in the assay on UACC-62 were 1.25 µM (inactive) and > 100 µM (inactive), respectively.

On to `COc1nc(NC2OC(COC(C)=O)C(OC(C)=O)C(OC(C)=O)C2OC(C)=O)c(/N=C/C=N/c2c(NC3OC(COC(C)=O)C(OC(C)=O)C(OC(C)=O)C3OC(C)=O)nc(OC)n(C)c2=O)c(=O)n1C` (stereo not given), for which the GI50 in the assay with 786-0 was 51.5 µM (inactive); in the assay with ACHN, > 100 µM (inactive); in the assay on EKVX it was > 100 µM (inactive); in the assay with HCC 2998 it was > 100 µM (inactive); in the assay on HOP-62, 28.1 µM (inactive); with K562, > 100 µM (inactive). In addition, the GI50 in the assay with LOX IMVI, in the assay with MDA-MB-435, with Malme-3M, in the assay on NCI-H23, with NCI/ADR-RES and in the assay with OVCAR-4 was > 100 µM (inactive) each time. Besides, the GI50 in the assay with OVCAR-8 was > 100 µM (inactive); with SF-539, > 100 µM (inactive); with SK-MEL-28, > 100 µM (inactive); in the assay on SK-OV-3 it was > 88.3 µM (inactive); with SR, > 100 µM (inactive); in the assay on T47D, > 100 µM (inactive). Moreover, the GI50 with U-251 is 30.5 µM (inactive); in the assay on UACC-62, > 100 µM (inactive).

On to `COc1ccc2nc3ccc(OC)cc3c(S(=O)(=O)Cc3ccc([N+](=O)[O-])cc3)c2c1`, for which the GI50 with 786-0 is 66.4 µM (inactive); in the assay with ACHN, > 100 µM (inactive); with EKVX, > 100 µM (inactive); in the assay with HCC 2998 it was > 100 µM (inactive); with HOP-62, 93.5 µM (inactive); in the assay with K562 it was > 100 µM (inactive). Also, the GI50 in the assay on LOX IMVI, in the assay on MDA-MB-435, with Malme-3M, with NCI-H23, with NCI/ADR-RES and in the assay on OVCAR-4 was > 100 µM (inactive) each time. In addition, the GI50 in the assay on OVCAR-8, in the assay on SF-539, with SK-MEL-28, in the assay with SK-OV-3, with SR and in the assay with T47D was > 100 µM (inactive) in each case. Besides, the GI50 in the assay on U-251 and in the assay on UACC-62 was > 100 µM (inactive) each time.

In the case of `C#CCCCC(=O)N(C(=O)C[S+]([O-])CC)c1ccccc1` (stereo not given), the GI50 with 786-0, in the assay with ACHN, with EKVX, with HCC 2998, in the assay with HOP-62 and in the assay with K562 was > 100 µM (inactive) throughout. Further, the GI50 in the assay on LOX IMVI, in the assay on MDA-MB-435, in the assay with Malme-3M, in the assay with NCI-H23, in the assay on NCI/ADR-RES and with OVCAR-4 was > 100 µM (inactive) in each case. The GI50 in the assay with OVCAR-8, in the assay on SF-539, with SK-MEL-28, in the assay with SK-OV-3, in the assay with SR and in the assay with T47D was > 100 µM (inactive) throughout. The GI50 in the assay with U-251 and in the assay with UACC-62 was > 100 µM (inactive) throughout.

With `C/C(Sc1ccccc1)=C1/CCCN(Cc2ccccc2)C1`, the GI50 in the assay with 786-0 is 19.5 µM (inactive); in the assay on ACHN it was 31.4 µM (inactive); in the assay on EKVX, 32.3 µM (inactive); with HCC 2998, 17.2 µM (inactive); with HOP-62, 20.6 µM (inactive); with K562 it was 18 µM (inactive). Further, the GI50 was 14.1 µM (inactive) with LOX IMVI; 25.1 µM (inactive) in the assay with MDA-MB-435; 14.3 µM (inactive) in the assay on Malme-3M; 23.9 µM (inactive) in the assay with NCI-H23; 24.9 µM (inactive) in the assay with NCI/ADR-RES; 35.2 µM (inactive) with OVCAR-4. The GI50 was 30 µM (inactive) in the assay on OVCAR-8; 28 µM (inactive) in the assay on SF-539; 23.8 µM (inactive) in the assay on SK-MEL-28; 32.7 µM (inactive) in the assay on SK-OV-3; 16.1 µM (inactive) in the assay with SR; 13.3 µM (inactive) in the assay on T47D. Besides, the GI50 with U-251 is 20.5 µM (inactive); with UACC-62, 19.9 µM (inactive).

With `CC(=O)Nc1ccc(S(=O)(=O)[N-]C2C(=O)c3ccccc3C(=O)C2[n+]2ccccc2)cc1` (stereo not given), the GI50 with 786-0 was > 100 µM (inactive); in the assay on ACHN, 15.8 µM (inactive); in the assay with EKVX, 31 µM (inactive); in the assay with HCC 2998, 19.1 µM (inactive); in the assay with HOP-62, 17.9 µM (inactive); in the assay with K562, 23.3 µM (inactive). Besides, the GI50 in the assay with LOX IMVI is 63.4 µM (inactive); with MDA-MB-435, 4.09 µM (inactive); in the assay on Malme-3M, 12.4 µM (inactive); in the assay with NCI-H23 it was 7.64 µM (inactive); in the assay on NCI/ADR-RES, 17.1 µM (inactive); in the assay with OVCAR-4 it was 15.5 µM (inactive). The GI50 in the assay on OVCAR-8 was 17.6 µM (inactive); in the assay on SF-539, 18.5 µM (inactive); with SK-MEL-28, 16.5 µM (inactive); in the assay on SK-OV-3 it was 94.8 µM (inactive); with SR it was 13.5 µM (inactive); in the assay on T47D it was 47.6 µM (inactive). In addition, the GI50 was 14.3 µM (inactive) in the assay with U-251 and 14.8 µM (inactive) in the assay on UACC-62.

On to `S=C=NCc1ccccc1` [BENZYL ISOTHIOCYANATE], for which the GI50 is 0.422 µM (active) with 786-0; 3.99 µM (inactive) in the assay with ACHN; 14.6 µM (inactive) with EKVX; 8.28 µM (inactive) in the assay with HCC 2998; 3.05 µM (inactive) in the assay with HOP-62; 0.697 µM (active) in the assay on K562. The GI50 in the assay on LOX IMVI is 0.796 µM (active); in the assay on MDA-MB-435 it was 2.16 µM (inactive); with Malme-3M, 3.1 µM (inactive); with NCI-H23, 3.81 µM (inactive); in the assay on NCI/ADR-RES it was 3.43 µM (inactive); in the assay with OVCAR-4, 3.8 µM (inactive). Further, the GI50 in the assay with OVCAR-8 is 2.62 µM (inactive); in the assay with SF-539 it was 1.82 µM (inactive); with SK-MEL-28, 3.08 µM (inactive); in the assay on SK-OV-3, 11 µM (inactive); with SR, 0.794 µM (active); in the assay on T47D, 10.4 µM (inactive). The GI50 in the assay with U-251 was 3.07 µM (inactive); with UACC-62, 3.32 µM (inactive).
